In the supplement of paper PMC10307832:

Assays:
Assay in all cases: relative viability (nuclei count vs DMSO), 5 days (fraction); higher = more cells survive
BAY61-3606 + Palbociclib = compound: COC1=C(C=C(C=C1)C2=CC3=NC=CN3C(=N2)NC4=C(C=CC=N4)C(=O)N)OC [BAY61-3606] + CC(=O)c1c(C)c2cnc(Nc3ccc(N4CCNCC4)cn3)nc2n(C2CCCC2)c1=O [Palbociclib] (partner 0.5 µM)
Procedure, shortened: (§1)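 The day after seeding in 1536-well plates, lung cancer cell lines were treated by pin tool with a single drug, or with a fixed anchor-drug dose together with five library-drug doses (not always all listed) in √10 steps. After 5 days, a combined fix-and-stain solution (final 0.05% Triton X-100, 1% formaldehyde, 1 ug/ml Hoechst) was added. Nuclei counted on 4× images gave relative viability as treated counts over vehicle counts, reported as the median of duplicate plates.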

BAY61-3606 + Pemetrexed = compound: COC1=C(C=C(C=C1)C2=CC3=NC=CN3C(=N2)NC4=C(C=CC=N4)C(=O)N)OC [BAY61-3606] + Nc1nc2[nH]cc(CCc3ccc(C(=O)N[C@@H](CCC(=O)O)C(=O)O)cc3)c2c(=O)[nH]1 [Pemetrexed] (partner 0.2 µM)
Procedure, shortened: as §1

Doxorubicin + Alpelisib = compound: COc1cccc2c1C(=O)c1c(O)c3c(c(O)c1C2=O)C[C@@](O)(C(=O)CO)C[C@@H]3O[C@H]1C[C@H](N)[C@H](O)[C@H](C)O1 [Doxorubicin] + Cc1nc(NC(=O)N2CCC[C@H]2C(N)=O)sc1-c1ccnc(C(C)(C)C(F)(F)F)c1 [Alpelisib] (partner 2 µM)
Procedure, shortened: as §1

Doxorubicin + Decitabine = compound: COc1cccc2c1C(=O)c1c(O)c3c(c(O)c1C2=O)C[C@@](O)(C(=O)CO)C[C@@H]3O[C@H]1C[C@H](N)[C@H](O)[C@H](C)O1 [Doxorubicin] + Nc1ncn([C@H]2C[C@H](O)[C@@H](CO)O2)c(=O)n1 [Decitabine] (partner 2 µM)
Procedure, shortened: as §1

| Cell Line | relative viability (BAY61-3606 + Palbociclib; first compound 0.02 µM) | relative viability (BAY61-3606 + Palbociclib; first compound 0.06325 µM) | relative viability (BAY61-3606 + Palbociclib; first compound 0.2 µM) | relative viability (BAY61-3606 + Palbociclib; first compound 0.6325 µM) | relative viability (BAY61-3606 + Palbociclib; first compound 2 µM) | relative viability (BAY61-3606 + Pemetrexed; first compound 0.02 µM) | relative viability (BAY61-3606 + Pemetrexed; first compound 0.06325 µM) | relative viability (BAY61-3606 + Pemetrexed; first compound 0.2 µM) | relative viability (BAY61-3606 + Pemetrexed; first compound 0.6325 µM) | relative viability (BAY61-3606 + Pemetrexed; first compound 2 µM) | relative viability (Doxorubicin + Alpelisib; first compound 0.001 µM) | relative viability (Doxorubicin + Alpelisib; first compound 0.003162 µM) | relative viability (Doxorubicin + Alpelisib; first compound 0.01 µM) | relative viability (Doxorubicin + Alpelisib; first compound 0.03162 µM) | relative viability (Doxorubicin + Alpelisib; first compound 0.1 µM) | relative viability (Doxorubicin + Decitabine; first compound 0.001 µM) | relative viability (Doxorubicin + Decitabine; first compound 0.003162 µM) | relative viability (Doxorubicin + Decitabine; first compound 0.01 µM) | relative viability (Doxorubicin + Decitabine; first compound 0.03162 µM) | relative viability (Doxorubicin + Decitabine; first compound 0.1 µM) |
| --- | --- | --- | --- | --- | --- | --- | --- | --- | --- | --- | --- | --- | --- | --- | --- | --- | --- | --- | --- | --- |
| NCI-H2126 | 0.356 | 0.353 | 0.369 | 0.352 | 0.31 | 0.708 | 0.654 | 0.639 | 0.713 | 0.58 | 0.743 | 0.775 | 0.755 | 0.711 | 0.796 | 0.531 | 0.608 | 0.562 | 0.57 | 0.587 |
| LCLC-103H | 0.473 | 0.508 | 0.449 | 0.462 | 0.481 | 0.437 | 0.441 | 0.457 | 0.462 | 0.446 | 0.917 | 0.993 | 0.981 | 1.06 | 1.08 | 0.751 | 0.747 | 0.75 | 0.789 | 0.73 |
| NCI-H1975 | 0.616 | 0.628 | 0.526 | 0.504 | 0.347 | 0.288 | 0.289 | 0.308 | 0.269 | 0.247 | 0.64 | 0.597 | 0.625 | 0.334 | 0.232 | 0.391 | 0.393 | 0.392 | 0.317 | 0.322 |
| NCI-H1944 | 0.344 | 0.313 | 0.31 | 0.338 | 0.213 | 0.677 | 0.565 | 0.644 | 0.583 | 0.518 | 0.8 | 0.836 | 0.851 | 0.83 | 0.885 | 0.441 | 0.506 | 0.403 | 0.372 | 0.439 |
| NCI-H2085 | 0.461 | 0.487 | 0.45 | 0.46 | 0.435 | 0.984 | 0.946 | 0.861 | 1.08 | 0.898 | 0.936 | 1 | 0.992 | 0.739 | 0.686 | 0.536 | 0.5 | 0.522 | 0.521 | 0.553 |
| COR-L 105 | 0.443 | 0.437 | 0.404 | 0.422 | 0.411 | 1.24 | 1.13 | 1.11 | 0.994 | 0.968 | 0.967 | 1.13 | 0.928 | 0.551 | 0.312 | 0.626 | 0.734 | 0.506 | 0.53 | 0.384 |
| NCI-H23 | 0.646 | 0.484 | 0.549 | 0.509 | 0.371 | 0.64 | 0.689 | 0.547 | 0.708 | 0.429 |  | 0.716 | 0.555 | 0.517 | 0.662 | 0.335 | 0.304 | 0.335 | 0.284 | 0.365 |
| PC-14 | 0.455 | 0.546 | 0.468 | 0.514 | 0.453 | 0.159 | 0.136 | 0.134 | 0.137 | 0.148 | 0.892 | 1.01 | 0.963 | 0.986 | 1.01 | 0.246 | 0.228 | 0.238 | 0.0977 | 0.0677 |
| NCI-H2087 | 0.234 | 0.264 | 0.221 | 0.28 | 0.249 | 0.578 | 0.685 | 0.682 | 0.625 | 0.588 | 1.2 | 1.15 | 1.19 | 0.984 | 0.862 | 0.291 | 0.264 | 0.239 | 0.242 | 0.173 |
| NCI-H1755 | 0.435 | 0.451 | 0.482 | 0.495 | 0.444 | 0.488 | 0.4 | 0.411 | 0.419 | 0.562 | 0.918 | 0.992 | 0.719 | 0.947 | 0.94 | 0.774 | 0.763 | 0.736 | 0.714 | 0.743 |
| EMC-BAC-2 | 0.516 | 0.515 | 0.513 | 0.587 | 0.547 | 0.464 | 0.438 | 0.449 | 0.438 | 0.523 | 0.799 | 0.88 | 0.679 | 0.734 | 0.717 | 0.983 | 0.781 | 0.614 | 0.321 | 0.338 |
| NCI-H2009 | 0.22 | 0.211 | 0.214 | 0.231 | 0.155 | 1 | 1.01 | 1.02 | 0.918 | 0.91 | 1.08 | 1.2 | 1.17 | 1.07 | 0.478 | 0.445 | 0.384 | 0.333 | 0.263 | 0.274 |
| NCI-H661 | 0.408 | 0.378 | 0.413 | 0.42 | 0.477 | 0.963 | 1.01 | 0.84 | 0.931 | 0.703 | 0.589 | 0.702 | 0.511 | 0.592 | 0.469 | 0.561 | 0.568 | 0.506 | 0.426 | 0.337 |
| NCI-H838 | 0.233 | 0.2 | 0.22 | 0.247 | 0.207 | 0.257 | 0.256 | 0.234 | 0.254 | 0.211 | 1 | 1.05 | 0.979 | 0.919 | 0.461 | 0.485 | 0.47 | 0.385 | 0.328 | 0.292 |
| NCI-H1915 | 0.54 | 0.565 | 0.537 | 0.551 | 0.375 | 0.546 | 0.544 | 0.488 | 0.447 | 0.453 | 0.98 | 1.05 | 1.1 | 1.05 | 1.12 | 0.265 | 0.263 | 0.283 | 0.259 | 0.271 |
| NCI-H441 | 0.249 | 0.264 | 0.256 | 0.231 | 0.192 | 0.263 | 0.236 | 0.271 | 0.238 | 0.242 |  | 0.713 | 0.684 | 0.234 | 0.393 | 0.597 | 0.241 | 0.243 | 0.157 | 0.183 |
| NCI-H1355 | 0.444 | 0.404 | 0.398 | 0.454 | 0.335 | 1.1 | 1.03 | 0.977 | 1.11 | 0.924 | 0.868 | 0.96 | 0.889 | 0.839 | 0.823 | 0.379 | 0.424 | 0.383 | 0.382 | 0.349 |
| NCI-H1651 | 0.558 | 0.511 | 0.513 | 0.573 | 0.523 | 0.608 | 0.544 | 0.492 | 0.537 | 0.531 | 0.902 | 0.996 | 0.875 | 0.424 | 0.201 | 0.534 | 0.63 | 0.638 | 0.506 | 0.571 |
| NCI-H2023 | 0.393 | 0.401 | 0.397 | 0.423 | 0.283 | 0.263 | 0.257 | 0.212 | 0.246 | 0.157 | 0.595 | 0.617 | 0.524 | 0.203 | 0.0842 | 0.209 | 0.219 | 0.171 | 0.0903 | 0.0802 |
| LU99A | 0.448 | 0.395 | 0.451 | 0.417 | 0.271 | 0.175 | 0.149 | 0.193 | 0.171 | 0.166 | 0.489 | 0.648 | 0.549 | 0.505 | 0.51 | 0.954 | 1.07 | 0.951 | 0.972 | 0.945 |
| NCI-H322M | 0.522 | 0.47 | 0.511 | 0.49 | 0.447 | 0.598 | 0.627 | 0.634 | 0.637 | 0.538 | 0.916 | 0.77 | 0.924 | 0.769 | 0.777 | 0.757 | 0.58 | 0.735 | 0.688 | 0.553 |
| LOU-NH91 | 0.547 | 0.503 | 0.529 | 0.508 | 0.557 | 0.402 | 0.385 | 0.413 | 0.38 | 0.413 |  | 0.707 | 0.701 | 0.589 | 0.398 |  | 0.816 | 0.837 | 0.758 | 0.693 |
| RERF-LC-KJ | 1.03 | 1.2 | 1.03 | 1.18 | 0.924 | 0.467 | 0.463 | 0.501 | 0.484 | 0.432 | 0.815 | 0.885 | 0.893 | 0.675 | 0.719 | 0.78 | 0.671 | 0.598 | 0.334 | 0.282 |
| H3255 | 0.3 | 0.307 | 0.301 | 0.334 | 0.307 | 0.587 | 0.546 | 0.598 | 0.626 | 0.593 | 0.698 | 0.656 | 0.562 | 0.58 | 0.404 |  | 0.533 | 0.604 | 0.568 | 0.583 |
| NCI-H1793 | 0.27 | 0.283 | 0.337 | 0.335 | 0.474 | 0.983 | 0.88 | 0.896 | 1.13 | 1.08 |  | 0.557 | 0.675 | 0.389 | 0.588 |  | 0.482 | 0.501 | 0.403 | 0.456 |
| LXF-289 | 0.533 | 0.587 | 0.62 | 0.677 | 0.665 | 0.94 | 0.939 | 0.901 | 0.946 | 0.907 | 1.02 | 1.1 | 1.07 | 1.08 | 1.06 | 0.41 | 0.413 | 0.395 | 0.317 | 0.392 |
| HOP-62 |  | 0.465 | 0.459 | 0.348 | 0.346 |  | 0.354 | 0.323 | 0.332 | 0.249 | 0.873 | 1.26 | 1.15 | 0.879 | 0.934 | 0.217 | 0.249 | 0.187 | 0.228 | 0.206 |
